# Source: PubChem BioAssay AID1963873 (Molecular Pharmacology Branch, DTP, NCI, 2024)
# Tested on: 276233-004-R-J1-PDC KRAS spheroids with HUVEC/MSC, viability
# Test: Anticancer human tumor 276233-004-R-J1-PDC patient-derived colon adenocarcinoma cell line growth inhibition [KRAS2]
# Conditions: second compound 1 µM; first compound 1 µM; stronger effect = lower value
# Text: Multicellular complex tumor spheroid response to RAS pathway inhibitors in combination with a targeted agents in patient-derived cell lines with oncogenic KRAS variants from multiple cancer types
# A high-throughput screen of multi-cell type tumor spheroids was designed to identify active combinations of targeted small molecules and KRAS pathway inhibitors. Complex spheroids include a stromal component modeled by human endothelial cells (HUVEC) and fibroblasts modeled by human mesenchymal stem cells (MSCs). The concentration ranges selected for each drug and investigational agent were based upon clinically achievable concentrations if the clinical Cmax of the agent was known.
# Compounds. The drugs and investigational agents: BI-3406 (NSC825286), BAY-293 (NSC824723), batoprotafib (TNO155; NSC825523), sotorasib (AMG 510; NSC818433), MRTX1257 (NSC819558), elimusertib (BAY 1895344; NSC800525), molibresib (GSK525762; NSC774829), temuterkib (LY3214996; NSC803410), venetoclax (NSC766270), alisertib (NSC759677), olaparib (NSC753686), talazoparib (NSC767125), erdafitinib (NSC781556), ipatasertib (NSC767898), cabozantinib (NSC761068), nintedanib (NSC756659), abemaciclib (NSC768073), docetaxel (NSC628503), trametinib (NSC758246), and sapanisertib (NSC764658) were obtained from the National Cancer Institute (NCI) Developmental Therapeutics Program Chemical Repository. The FDA-approved anticancer drug set is available from the Developmental Therapeutics Program. […] The stock solutions were prepared in dimethyl sulfoxide (DMSO, Sigma-Aldrich, St. Louis, MO, cat. D2650) at 800-fold the tested concentration and stored at -70 degrees C prior to their use. All drugs and investigational agents were tested over a range starting from a high concentration at or near the clinical Cmax and decreasing in half-log increments. If the clinical Cmax for an agent had not been determined, the highest concentration tested was 10 microM.
# Cell Culture. All cells were maintained in an incubator at 37 degrees C and 5% CO2 with 95% humidity. The PDC lines were cultured according to standard operating procedures established by the NCI PDMR (https://pdmr.cancer.gov/sops/default.htm). Briefly, all PDCs were thawed and cultured in Matrigel-coated flasks prepared with a working solution of 1X Ham's F-12 nutrient mix, without supplementation (Invitrogen, Waltham, MA, cat. 11765054), 100 U/mL penicillin-streptomycin (Invitrogen, cat. 15140122), and 2.5% Matrigel (Corning Inc., Corning, NY, cat. 354248) for the first three passages. All PDCs were cultured in complete DMEM/F-12 media containing advanced DMEM/F-12 (Invitrogen, cat. 12634028), 4.9% defined fetal bovine serum, heat inactivated (HyClone Laboratories Inc., Logan, UT, cat. SH30070.03HI), 389 ng/mL hydrocortisone (Sigma-Aldrich, cat. H4001), 9.7 ng/mL human EGF recombinant protein (Invitrogen, cat. PHG0313), 23.4 microg/mL adenine (Sigma-Aldrich, cat. A2786), 97.3 U/mL penicillin-streptomycin (Invitrogen, cat. 15140122), 1.9 mM L-glutamine (Invitrogen, cat. 25030081), and 9.7 microM Y-27632 dihydrochloride (Tocris Bioscience, Bristol, United Kingdom, cat. 1254). The PDCs were cultured in complete DMEM/F12 media without 9.7 microM Y-27632 dihydrochloride for at least two passages prior to the screen. The established cell line HOP-62 was cultured in RPMI 1640 medium, HEPES (Invitrogen, cat. 22400105) with 10% defined fetal bovine serum (HyClone Laboratories Inc., cat. SH30070.03) and 2 mM L-glutamine (Invitrogen, cat. 25030081). The pooled donor HUVEC were cultured in endothelial cell growth medium 2 (PromoCell, Heidelberg, Germany, cat. C-22011) and the hMSC were cultured in mesenchymal stem cell growth medium 2 (PromoCell, cat. C-28009). For all experiments, HUVEC and hMSC were used at passages </=5, while the malignant cell lines were used at passages </=15. […]
# 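Also: cells exposed to agents for seven days before viability read; 100% = DMSO vehicle control wells and lower values mean fewer viable cells.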
row,Structure (SMILES),"viability, T/C"
1,COc1cc2nccc(Oc3ccc(NC(=O)C4(C(=O)Nc5ccc(F)cc5)CC4)cc3)c2cc1OC + CNCc1ccccc1-c1csc(C(C)Nc2nc(C)nc3cc(OC)c(OC)cc23)c1,35.6%
2,Cn1nccc1Nc1nccc(-c2cc3c(s2)C(C)(C)N(CCN2CCOCC2)C3=O)n1 + C=CC(=O)N1CCN(c2nc(=O)n(-c3c(C)ccnc3C(C)C)c3nc(-c4c(O)cccc4F)c(F)cc23)C(C)C1,93.1%

# Same assay, conditions: second compound 1 µM; first compound 3.16 µM; stronger effect = lower value
row,Structure (SMILES),"viability, T/C"
1,COC(=O)c1ccc2c(C(=Nc3ccc(N(C)C(=O)CN4CCN(C)CC4)cc3)c3ccccc3)c(O)[nH]c2c1 + CC1OCC2(CCN(c3cnc(Sc4ccnc(N)c4Cl)c(N)n3)CC2)C1N,42.3%
2,CCNC(=O)CC1N=C(c2ccc(Cl)cc2)c2cc(OC)ccc2-n2c(C)nnc21 (centres undefined) + CC1OCC2(CCN(c3cnc(Sc4ccnc(N)c4Cl)c(N)n3)CC2)C1N,46.9%
3,COc1cc2nccc(Oc3ccc(NC(=O)C4(C(=O)Nc5ccc(F)cc5)CC4)cc3)c2cc1OC + CNCc1ccccc1-c1csc(C(C)Nc2nc(C)nc3cc(OC)c(OC)cc23)c1,15%
4,Cn1nccc1Nc1nccc(-c2cc3c(s2)C(C)(C)N(CCN2CCOCC2)C3=O)n1 + C=CC(=O)N1CCN(c2nc(=O)n(-c3c(C)ccnc3C(C)C)c3nc(-c4c(O)cccc4F)c(F)cc23)C(C)C1,67.6%

# Same assay, conditions: second compound 1 µM; first compound 10 µM; stronger effect = lower value
row,Structure (SMILES),"viability, T/C"
1,COC(=O)c1ccc2c(C(=Nc3ccc(N(C)C(=O)CN4CCN(C)CC4)cc3)c3ccccc3)c(O)[nH]c2c1 + CC1OCC2(CCN(c3cnc(Sc4ccnc(N)c4Cl)c(N)n3)CC2)C1N,42.1%
2,CCNC(=O)CC1N=C(c2ccc(Cl)cc2)c2cc(OC)ccc2-n2c(C)nnc21 (centres undefined) + CC1OCC2(CCN(c3cnc(Sc4ccnc(N)c4Cl)c(N)n3)CC2)C1N,52.2%
3,COc1cc2nccc(Oc3ccc(NC(=O)C4(C(=O)Nc5ccc(F)cc5)CC4)cc3)c2cc1OC + CNCc1ccccc1-c1csc(C(C)Nc2nc(C)nc3cc(OC)c(OC)cc23)c1,41.5%
4,Cn1nccc1Nc1nccc(-c2cc3c(s2)C(C)(C)N(CCN2CCOCC2)C3=O)n1 + C=CC(=O)N1CCN(c2nc(=O)n(-c3c(C)ccnc3C(C)C)c3nc(-c4c(O)cccc4F)c(F)cc23)C(C)C1,69.2%

# Same assay, conditions: second compound 3.16 µM; first compound 0.0316 µM; stronger effect = lower value
row,Structure (SMILES),"viability, T/C"
1,COC(=O)c1ccc2c(C(=Nc3ccc(N(C)C(=O)CN4CCN(C)CC4)cc3)c3ccccc3)c(O)[nH]c2c1 + CC1OCC2(CCN(c3cnc(Sc4ccnc(N)c4Cl)c(N)n3)CC2)C1N,49.8%
2,CCNC(=O)CC1N=C(c2ccc(Cl)cc2)c2cc(OC)ccc2-n2c(C)nnc21 (centres undefined) + CC1OCC2(CCN(c3cnc(Sc4ccnc(N)c4Cl)c(N)n3)CC2)C1N,72.6%
3,COc1cc2nccc(Oc3ccc(NC(=O)C4(C(=O)Nc5ccc(F)cc5)CC4)cc3)c2cc1OC + CNCc1ccccc1-c1csc(C(C)Nc2nc(C)nc3cc(OC)c(OC)cc23)c1,0.61%
4,Cn1nccc1Nc1nccc(-c2cc3c(s2)C(C)(C)N(CCN2CCOCC2)C3=O)n1 + C=CC(=O)N1CCN(c2nc(=O)n(-c3c(C)ccnc3C(C)C)c3nc(-c4c(O)cccc4F)c(F)cc23)C(C)C1,97.1%

# Same assay, conditions: second compound 3.16 µM; first compound 0.1 µM; stronger effect = lower value
row,Structure (SMILES),"viability, T/C"
1,COC(=O)c1ccc2c(C(=Nc3ccc(N(C)C(=O)CN4CCN(C)CC4)cc3)c3ccccc3)c(O)[nH]c2c1 + CC1OCC2(CCN(c3cnc(Sc4ccnc(N)c4Cl)c(N)n3)CC2)C1N,47.6%
2,CCNC(=O)CC1N=C(c2ccc(Cl)cc2)c2cc(OC)ccc2-n2c(C)nnc21 (centres undefined) + CC1OCC2(CCN(c3cnc(Sc4ccnc(N)c4Cl)c(N)n3)CC2)C1N,71.6%
3,COc1cc2nccc(Oc3ccc(NC(=O)C4(C(=O)Nc5ccc(F)cc5)CC4)cc3)c2cc1OC + CNCc1ccccc1-c1csc(C(C)Nc2nc(C)nc3cc(OC)c(OC)cc23)c1,2.67%
4,Cn1nccc1Nc1nccc(-c2cc3c(s2)C(C)(C)N(CCN2CCOCC2)C3=O)n1 + C=CC(=O)N1CCN(c2nc(=O)n(-c3c(C)ccnc3C(C)C)c3nc(-c4c(O)cccc4F)c(F)cc23)C(C)C1,122%

# Same assay, conditions: second compound 3.16 µM; first compound 0.316 µM; stronger effect = lower value
row,Structure (SMILES),"viability, T/C"
1,COC(=O)c1ccc2c(C(=Nc3ccc(N(C)C(=O)CN4CCN(C)CC4)cc3)c3ccccc3)c(O)[nH]c2c1 + CC1OCC2(CCN(c3cnc(Sc4ccnc(N)c4Cl)c(N)n3)CC2)C1N,40.6%
